Source: US20110190267A1, “PRODRUGS OF OPIOIDS AND USES THEREOF” (priority 2010, published 2011)
“And” between values parts separate entries of the source, which are not always exact repeats. Equal entries are not always repeated.

What was measured:
[1] = Pharmacokinetics of meptazinol from PABA analogue prodrugs, monkeys (Example 26); assay type: in vivo; settings: monkey, plasma, po, 2 mg/kg
Description: (§1) Blood samples were taken at various times after administration and submitted to analysis for the parent drug and prodrug using a validated LC-MS-MS assay. Pharmacokinetic parameters derived from the plasma analytical data were determined using Win Nonlin.

[2] = Pharmacokinetics of meptazinol from PABA analogue prodrugs, dogs (Example 26); assay type: in vivo; settings: dog, plasma, po, 1 mg/kg
Description: as §1

[3] = Pharmacokinetics of meptazinol or meptazinol PABA carbamate, dogs (Example 27); assay type: in vivo, dog; settings: for Vd: read-out: Vss; for Fabs: meptazinol
From the text: The results are given in Tables 8 to 11 and shown graphically in FIG. 2.

[4] = Pharmacokinetics of meptazinol or meptazinol PABA carbamate, monkeys (Example 29); assay type: in vivo, monkey; settings: for AUC / C0 / t½ / Cmax / T>50%Cmax / Tmax / half-life: meptazinol in plasma; for Fabs: meptazinol; for Vd: read-out: Vss; for half-life: read-out: t½ (converted)
From the text: The results are given in Tables 15 to 18 and shown graphically in FIG. 4.

[5] = target: T1, Acetylcholinesterase (h), human recombinant (HEK-293 cells) (Homo sapiens, UniProt P22303); experiment: Human acetylcholine esterase inhibition (Example 31); assay type: biochemical; settings: AMTCh 50 μM, 30 min./37° C., photometry; read-out: apparent IC50
T1 construct: host or cells: HEK-293 cells
T1 sequence (P22303 32-614): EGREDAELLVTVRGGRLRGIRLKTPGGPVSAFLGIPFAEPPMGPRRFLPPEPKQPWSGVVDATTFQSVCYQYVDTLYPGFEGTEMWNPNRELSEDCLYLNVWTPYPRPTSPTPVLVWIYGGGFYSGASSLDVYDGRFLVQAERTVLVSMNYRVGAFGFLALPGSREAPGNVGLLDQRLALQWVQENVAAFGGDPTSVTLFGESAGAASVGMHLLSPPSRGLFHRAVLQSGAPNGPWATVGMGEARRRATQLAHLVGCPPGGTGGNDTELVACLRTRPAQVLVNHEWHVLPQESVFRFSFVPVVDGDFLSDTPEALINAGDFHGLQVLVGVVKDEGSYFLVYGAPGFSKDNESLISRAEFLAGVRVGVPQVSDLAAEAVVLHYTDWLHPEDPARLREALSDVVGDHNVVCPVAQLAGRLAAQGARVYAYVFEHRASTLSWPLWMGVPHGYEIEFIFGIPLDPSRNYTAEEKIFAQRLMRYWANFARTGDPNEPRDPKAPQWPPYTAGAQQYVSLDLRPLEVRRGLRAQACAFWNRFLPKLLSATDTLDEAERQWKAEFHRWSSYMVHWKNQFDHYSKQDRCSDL
Description: The results are expressed as a percent of control specific activity ((measured specific activity/control specific activity)×100) obtained in the presence of the test compounds.
The IC50 values (concentration causing a half-maximal inhibition of control specific activity), and Hill coefficients (nh) were determined by non-linear regression analysis of the inhibition curves generated with mean replicate values using hill equation curve fitting (y=d+[(a−d)/(1+(c/c50)^nh)], where y=specific activity, d=minimum specific activity, a=maximum specific activity, c=compound concentration, C50=IC50, and nh=slope factor).
This analysis was performed using software developed at Cerep (Hill software) and validated by comparison with data generated by the commercial software Sigmaplot® 4.0 for Windows®.

[6] = Norbury et al. (1983); cited from earlier work
[7] = Pharmacokinetics of meptazinol or meptazinol PABA carbamate, rats (Example 30); settings: for Fabs: meptazinol; for clearance: CL; for Vd: Vss
Description: Blood samples were taken at various times after administration and submitted to analysis for the parent drug and pro-drug using a validated LC-MS-MS assay. Pharmacokinetic parameters derived from the plasma analytical data were determined using Win Nonlin.

[8] = read-out: AUC* (mean ngh/mL), AUC0-t
[9] = dog, plasma, iv, 1 mg/kg, iv meptazinol 1 mg free base equivalents/kg, individual animals
[10] = dog, plasma, iv, 1 mg/kg, iv meptazinol 1 mg free base equivalents/kg, mean
[11] = iv meptazinol 1 mg free base equivalents/kg, individual animals
[12] = meptazinol in plasma, oral meptazinol 1 mg free base equivalents/kg, individual animals
[13] = meptazinol in plasma, oral meptazinol 1 mg free base equivalents/kg, mean
[14] = oral meptazinol 10 mg free base equivalents/kg, individual animals
[15] = oral meptazinol 10 mg free base equivalents/kg, mean
[16] = monkey, plasma, iv, 1 mg/kg, iv meptazinol 1 mg free base equivalents/kg, individual animals
[17] = monkey, plasma, iv, 1 mg/kg, iv meptazinol 1 mg free base equivalents/kg, mean
[18] = iv meptazinol 1 mg free base equivalents/kg, rats, individual animals
[19] = meptazinol in plasma, iv meptazinol 1 mg free base equivalents/kg, rats, individual animals
[20] = meptazinol in plasma, oral meptazinol 1 mg free base equivalents/kg, rats, individual animals
[21] = rat, plasma, iv, 1 mg/kg, iv meptazinol 1 mg free base equivalents/kg, rats, individual animals
[22] = rat, plasma, iv, 1 mg/kg, iv meptazinol 1 mg free base equivalents/kg, rats, mean

CCC1(c2cccc(O)c2)CCCCN(C)C1 (stereo not shown) [meptazinol]
Cmax [1]: 1.3 ± 0.3 ng/mL
AUC(0-t) [1, 8]: 3.1 ± 0.7 ng·h/mL
Cmax [2]: 4 ± 5.5 ng/mL
AUC(0-t) [2, 8]: 5.4 ± 5.9 ng·h/mL
clearance [3, 9]: 67.3 mL/min/kg
Vd [3, 9]: 4.14 L
clearance [3, 10]: 62.7 mL/min/kg
Vd [3, 10]: 3.55 L
AUC ([3]; dog, plasma, iv, 1 mg/kg, meptazinol in plasma, iv meptazinol 1 mg free base equivalents/kg, individual animals, read-out: AUC): 247 ng·h/mL
AUC ([3]; dog, plasma, iv, 1 mg/kg, meptazinol in plasma, iv meptazinol 1 mg free base equivalents/kg, mean, read-out: AUC): 269 ng·h/mL
Cmax ([3]; dog, plasma, po, 1 mg/kg, meptazinol in plasma, oral meptazinol 1 mg free base equivalents/kg, individual animals, read-out: Cmax): 4.22 ng/mL
AUC ([3]; dog, plasma, po, 1 mg/kg, meptazinol in plasma, oral meptazinol 1 mg free base equivalents/kg, mean, read-out: AUC): 15.6 ng·h/mL
half-life ([3]; dog, plasma, po, 1 mg/kg, meptazinol in plasma, oral meptazinol 1 mg free base equivalents/kg, mean, read-out: t½ (converted)): 108 min
CL [3, 11]: 60.8 mL/min/kg and 57.2 mL/min/kg and 54.5 mL/min/kg and 73.3 mL/min/kg
Co ([3]; meptazinol in plasma, iv meptazinol 1 mg free base equivalents/kg, individual animals): 340 ng/mL and 308 ng/mL and 350 ng/mL and 402 ng/mL and 477 ng/mL
Co ([3]; meptazinol in plasma, iv meptazinol 1 mg free base equivalents/kg, mean): 375 ng/mL
AUC [3, 12]: 15.1 ng · h/mL and 15.8^b ng · h/mL and 23.3 ng · h/mL and 19.6^b ng · h/mL and 8.52 ng · h/mL
Cmax [3, 12]: 6.82 ng/mL and 6.79 ng/mL and 5.04 ng/mL and 3.52 ng/mL
T>50%Cmax [3, 12]: 2.5 h and 1.1 h and 1.9 h and 2.4 h and 1.8 h
Tmax [3, 12]: 0.5 h and 1 h (2×)
Cmax [3, 13]: 5.28 ng/mL
T>50%Cmax [3, 13]: 1.9 h
Fabs ([3]; oral meptazinol 1 mg free base equivalents/kg, individual animals): 6.1% and 5.8% and 8.0% and 6.4% and 3.8%
Fabs ([3]; oral meptazinol 1 mg free base equivalents/kg, mean): 6.0±2.1% and 6.0%
CL [4, 11]: 66.2 mL/min/kg and 73.2 mL/min/kg and 77.3 mL/min/kg and 70.3 mL/min/kg
Vss [4, 11]: 4.88 L and 4.11 L and 4.96 L
AUC [4, 11]: 252 ng·h/mL and 228 ng·h/mL and 215 ng·h/mL and 237 ng·h/mL
C0 [4, 11]: 334 ng/mL and 226 ng/mL (2×) and 369 ng/mL
t½ [4, 11]: 49.8 min and 40.8 min and 52.2 min
AUC [4, 14]: 47.7 ng·h/mL and 37.7 ng·h/mL and 38.2 ng·h/mL and 47.8 ng·h/mL
Cmax [4, 14]: 18.3 ng/mL and 19.8 ng/mL and 22.5 ng/mL and 19 ng/mL
T>50%Cmax [4, 14]: 0.9 h and 2.4 h and 1.7 h and 1.4 h and 2.3 h
Tmax [4, 14]: 120 min and 60 min
t½ [4, 14]: 48 min and 54 min and 42 min
T>50%Cmax [4, 15]: 1.7 h
Fabs [4, 14]: 1.6% (3×) and 2.0% (2×)
Fabs [4, 15]: 1.8%
clearance [4, 16]: 73.7 mL/min/kg
Vd [4, 16]: 4.83 L
clearance [4, 17]: 72.2 mL/min/kg
Vd [4, 17]: 4.72 L
AUC ([4]; monkey, plasma, iv, 1 mg/kg, iv meptazinol 1 mg free base equivalents/kg, individual animals, read-out: AUC): 227 ng·h/mL
C0 ([4]; monkey, plasma, iv, 1 mg/kg, iv meptazinol 1 mg free base equivalents/kg, individual animals, read-out: C0): 211 ng/mL
half-life [4, 16]: 48.6 min
AUC ([4]; monkey, plasma, iv, 1 mg/kg, iv meptazinol 1 mg free base equivalents/kg, mean, read-out: AUC): 232 ng·h/mL
C0 ([4]; monkey, plasma, iv, 1 mg/kg, iv meptazinol 1 mg free base equivalents/kg, mean, read-out: C0): 273 ng/mL
half-life [4, 17]: 50.4 min
AUC ([4]; monkey, plasma, po, 10 mg meptazinol free base equivalents/kg, oral meptazinol 10 mg free base equivalents/kg, individual animals, read-out: AUC): 39.4 ng·h/mL
Cmax ([4]; monkey, plasma, po, 10 mg meptazinol free base equivalents/kg, oral meptazinol 10 mg free base equivalents/kg, individual animals, read-out: Cmax): 26.1 ng/mL
half-life ([4]; monkey, plasma, po, 10 mg meptazinol free base equivalents/kg, oral meptazinol 10 mg free base equivalents/kg, individual animals): 60 min
AUC ([4]; monkey, plasma, po, 10 mg meptazinol free base equivalents/kg, oral meptazinol 10 mg free base equivalents/kg, mean, read-out: AUC): 42.2 ng·h/mL
Cmax ([4]; monkey, plasma, po, 10 mg meptazinol free base equivalents/kg, oral meptazinol 10 mg free base equivalents/kg, mean, read-out: Cmax): 21.1 ng/mL
half-life ([4]; monkey, plasma, po, 10 mg meptazinol free base equivalents/kg, oral meptazinol 10 mg free base equivalents/kg, mean): 48 min
Tmax ([4]; monkey, plasma, po, 10 mg meptazinol free base equivalents/kg, oral meptazinol 10 mg free base equivalents/kg, median value, read-out: Tmax): 30 min
IC50 [5]: 1500 nM
oral bioavailability [6]: < 10%
CL [7, 18]: 75.2 mL/min/kg and 88.3 mL/min/kg and 89.3 mL/min/kg and 92.2 mL/min/kg
Vss [7, 18]: 4.0 L and 5.4 L (2×) and 5.1 L
AUC [7, 19]: 222 ng·h/mL and 189 ng·h/mL and 187 ng·h/mL and 181 ng·h/mL
C0 [7, 19]: 246 ng/mL and 259 ng/mL and 267 ng/mL and 244 ng/mL
t½ [7, 19]: 36 min and 42 min
AUC* ([7]; meptazinol in plasma, oral meptazinol 1 mg free base equivalents/kg, rats, calculated based on half-life from previous iv study, individual animals): 3.1 ng·h/mL and 2.8 ng·h/mL and 4.9 ng·h/mL
Cmax [7, 20]: 1.12 ng/mL and 1.49 ng/mL and 1.44 ng/mL
t½* [7, 20]: 54 min
Fabs ([7]; oral meptazinol 1 mg free base equivalents/kg, rats, individual animals): 1.6% (2×) and 1.5% and 2.6%
Fabs ([7]; oral meptazinol 1 mg free base equivalents/kg, rats, mean): 1.8±0.5% and 1.8%
AUC ([7]; rat, plasma, iv, 1 mg/kg, AUC, meptazinol in plasma, iv meptazinol 1 mg free base equivalents/kg, rats, individual animals): 161 ng·h/mL
AUC ([7]; rat, plasma, iv, 1 mg/kg, AUC, meptazinol in plasma, iv meptazinol 1 mg free base equivalents/kg, rats, mean): 188 ng·h/mL
C0 ([7]; rat, plasma, iv, 1 mg/kg, C0, meptazinol in plasma, iv meptazinol 1 mg free base equivalents/kg, rats, individual animals): 191 ng/mL
C0 ([7]; rat, plasma, iv, 1 mg/kg, C0, meptazinol in plasma, iv meptazinol 1 mg free base equivalents/kg, rats, mean): 241 ng/mL
clearance [7, 21]: 104 mL/min/kg
clearance [7, 22]: 89.7 mL/min/kg
Vd [7, 21]: 6.8 L
Vd [7, 22]: 5.3 L
half-life ([7]; rat, plasma, iv, 1 mg/kg, t½, meptazinol in plasma, iv meptazinol 1 mg free base equivalents/kg, rats, individual animals): 48 min
half-life ([7]; rat, plasma, iv, 1 mg/kg, t½, meptazinol in plasma, iv meptazinol 1 mg free base equivalents/kg, rats, mean): 42 min
Tmax ([7]; rat, plasma, po, 1 mg/kg): 30 min
AUC ([7]; rat, plasma, po, 1 mg/kg, AUC*, meptazinol in plasma, oral meptazinol 1 mg free base equivalents/kg, rats, calculated based on half-life from previous iv study, individual animals): 2.9 ng·h/mL
AUC ([7]; rat, plasma, po, 1 mg/kg, AUC*, meptazinol in plasma, oral meptazinol 1 mg free base equivalents/kg, rats, calculated based on half-life from previous iv study, mean): 3.4 ng·h/mL
Cmax ([7]; rat, plasma, po, 1 mg/kg, Cmax, meptazinol in plasma, oral meptazinol 1 mg free base equivalents/kg, rats, individual animals): 1.93 ng/mL
Cmax ([7]; rat, plasma, po, 1 mg/kg, Cmax, meptazinol in plasma, oral meptazinol 1 mg free base equivalents/kg, rats, mean): 1.6 ng/mL
half-life ([7]; rat, plasma, po, 1 mg/kg, t½*, meptazinol in plasma, oral meptazinol 1 mg free base equivalents/kg, rats, mean): 78 min
